Measured values: patent US11492335B2, “Aryl or heteroaryl triazolone derivatives or salts thereof, or pharmaceutical compositions comprising the same” (YUHAN CORPORATION, priority 2018, dated 2022)
Structures can show the parent of a compound that is named as a salt. Where two headings read alike, the source gives them in different places.

Columns and labels:
Format in all cases: biochemical
[1] = target: T1, recombinant human MAO-B (monoamine oxidase-B) (Homo sapiens, UniProt P27338); experiment: Activity on recombinant human MAO-B, Amplex Red method, 1 mM benzylamine substrate; conditions: 1 mM benzylamine
T1 construct: purchased Sigma-Aldrich
T1 sequence (P27338 1-520): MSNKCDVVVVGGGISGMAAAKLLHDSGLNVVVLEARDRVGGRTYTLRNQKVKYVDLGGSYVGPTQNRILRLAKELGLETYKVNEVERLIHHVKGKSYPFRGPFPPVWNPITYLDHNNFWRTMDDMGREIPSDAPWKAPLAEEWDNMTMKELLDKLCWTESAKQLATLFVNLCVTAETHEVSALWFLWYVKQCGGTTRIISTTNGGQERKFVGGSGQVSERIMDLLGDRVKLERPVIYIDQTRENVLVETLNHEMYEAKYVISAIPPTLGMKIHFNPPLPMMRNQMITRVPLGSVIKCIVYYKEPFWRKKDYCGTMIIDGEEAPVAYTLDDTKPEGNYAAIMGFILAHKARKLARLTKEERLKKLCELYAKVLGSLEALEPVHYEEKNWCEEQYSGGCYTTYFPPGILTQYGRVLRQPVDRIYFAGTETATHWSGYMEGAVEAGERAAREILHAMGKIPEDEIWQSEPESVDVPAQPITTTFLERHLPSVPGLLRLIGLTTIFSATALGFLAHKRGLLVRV
Method: (§1) The compounds according to the present technology were evaluated in terms of activity on recombinant human VAP-1 (R&D systems) by measuring the level of hydrogen peroxide in horseradish peroxidase (HRP)-coupled reaction using Amplex Red Hydrogen Peroxide Assay Kit (Molecular Probes, Invitrogen, USA). The experiment was carried out at room temperature using benzylamine as a substrate. In the HRP-coupled reaction, hydrogen peroxide oxidation of 10-acetyl-3,7-dihydroxyphenoxazine (Amplex Red reagent) produces resorufin, which is a highly fluorescent compound. Briefly, the test compound was dissolved in dimethyl sulfoxide (DMSO) at a concentration of 20 mM. The dose-response assessment was made by 1:3 serial dilution in DMSO, thereby creating an 8 point curve. The concentration of the upper part was controlled according to the efficacy of the compounds, followed by dilution with a reaction buffer solution to obtain a final DMSO concentration less than 1%. To each well of a 96 black well plate, human VAP-1 purified in 50 mM sodium phosphate buffer solution (pH7.4) was added. The test compounds dissolved in DMSO were incubated with the human VAP-1 enzymes at 37° C. for 30 minutes. After 30-minute incubation, each well is added with a reaction mixture containing 200 uM Amplex Red reagent prepared from 50 mM sodium phosphate buffer solution (pH 7.4), 1 mM benzylamine, and 1 U/mL HRP. Fluorescence intensity was measured at several time points during 1-2 hours using a microplate reader (Flexstation3, Molecular Devices) under the wavelength condition exciting at 544 nm and reading the emission at 590 nm. The inhibitory effect of the compounds was measured as a decrease (%) in the signal rate as compared to the control group without any inhibitor (only diluted DMSO). Data was fixed to a logistic model with four variables and IC50 value was calculated using GraphPad Prism program.
(§2) In addition, the compounds according to the present technology were evaluated in terms of activity on a recombinant human MAO-A (monoamine oxidase-A, Sigma-Aldrich) and a recombinant human MAO-B (monoamine oxidase-B, Sigma-Aldrich) by using as substrates, 0.5 mM tyramine and 1 mM benzylamine, respectively, with a method similar to the activity evaluation method for recombinant human VAP-1. The compounds according to the present technology were also evaluated in terms of activity on a recombinant human DAO (diamine oxidase, R&D systems) by using as a substrate 1 mM putrescine with a method similar to the activity evaluation method for recombinant human VAP-1.

[2] = target: T2, recombinant human VAP-1 (Homo sapiens, UniProt Q16853); experiment: Activity on recombinant human VAP-1, Amplex Red HRP-coupled hydrogen peroxide assay, benzylamine substrate; conditions: recombinant human VAP-1, benzylamine substrate, read-out: Inhibitory Activity (IC50, nM) human VAP-1
T2 construct: purchased R&D systems
T2 sequence (Q16853 1-763): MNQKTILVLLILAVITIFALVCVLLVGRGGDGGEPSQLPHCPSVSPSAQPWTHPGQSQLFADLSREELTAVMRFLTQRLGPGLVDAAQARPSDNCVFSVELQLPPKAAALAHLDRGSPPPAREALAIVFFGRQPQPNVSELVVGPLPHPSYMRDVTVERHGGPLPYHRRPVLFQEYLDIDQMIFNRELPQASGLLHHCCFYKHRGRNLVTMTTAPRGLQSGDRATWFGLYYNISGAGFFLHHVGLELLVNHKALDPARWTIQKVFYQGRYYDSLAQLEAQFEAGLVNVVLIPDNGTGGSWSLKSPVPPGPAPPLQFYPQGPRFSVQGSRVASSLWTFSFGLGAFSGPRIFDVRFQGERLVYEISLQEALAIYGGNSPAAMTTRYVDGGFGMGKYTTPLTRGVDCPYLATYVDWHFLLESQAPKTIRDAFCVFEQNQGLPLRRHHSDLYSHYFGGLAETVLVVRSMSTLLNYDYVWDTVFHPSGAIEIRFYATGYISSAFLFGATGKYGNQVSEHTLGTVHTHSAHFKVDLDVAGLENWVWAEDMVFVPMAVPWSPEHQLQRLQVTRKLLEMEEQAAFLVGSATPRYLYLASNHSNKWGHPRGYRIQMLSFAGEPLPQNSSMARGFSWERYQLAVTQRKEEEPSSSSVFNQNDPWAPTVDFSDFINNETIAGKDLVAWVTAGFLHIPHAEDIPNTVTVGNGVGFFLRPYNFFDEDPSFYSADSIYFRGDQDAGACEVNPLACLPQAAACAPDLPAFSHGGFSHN
Method: as §1

[3] = target: T3, recombinant human DAO (diamine oxidase) (Homo sapiens, UniProt P19801); experiment: Activity on recombinant human DAO, Amplex Red method, 1 mM putrescine substrate; conditions: recombinant human DAO; for IC50: read-out: Inhibitory Activity (IC50, nM) DAO
T3 construct: purchased R&D systems
T3 sequence (P19801 20-751): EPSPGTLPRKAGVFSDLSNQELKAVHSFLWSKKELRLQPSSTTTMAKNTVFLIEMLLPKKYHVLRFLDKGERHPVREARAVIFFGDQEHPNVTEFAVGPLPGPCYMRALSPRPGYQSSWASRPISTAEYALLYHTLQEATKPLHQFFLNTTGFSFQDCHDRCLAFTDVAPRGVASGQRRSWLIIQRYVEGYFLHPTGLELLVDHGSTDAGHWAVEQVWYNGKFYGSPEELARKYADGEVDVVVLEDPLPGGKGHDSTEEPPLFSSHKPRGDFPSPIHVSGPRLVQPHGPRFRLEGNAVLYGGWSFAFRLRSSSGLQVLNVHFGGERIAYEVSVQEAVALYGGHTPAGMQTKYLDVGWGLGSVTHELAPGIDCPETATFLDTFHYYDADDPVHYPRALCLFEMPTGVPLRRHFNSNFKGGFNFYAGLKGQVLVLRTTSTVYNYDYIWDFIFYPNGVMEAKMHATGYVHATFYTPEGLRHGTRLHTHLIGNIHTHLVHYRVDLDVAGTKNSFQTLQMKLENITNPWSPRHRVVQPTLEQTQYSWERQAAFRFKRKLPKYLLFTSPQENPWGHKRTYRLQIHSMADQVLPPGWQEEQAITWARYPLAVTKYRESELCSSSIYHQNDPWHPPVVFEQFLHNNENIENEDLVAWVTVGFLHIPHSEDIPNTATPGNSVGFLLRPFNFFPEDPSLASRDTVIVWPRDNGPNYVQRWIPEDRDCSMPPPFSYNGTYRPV
Method: as §1, §2

[4] = 1 mM putrescine, * = between 10 and 100 nM, ** = between 300 and 1000 nM

| Compound | Inhibitory Activity (IC50, nM) MAO-B [1] | IC50 ([2]; 30 min preincubation at 37° C.) [nM] | Inhibitory Activity (IC50, nM) DAO [3, 4] | IC50 [3, 4] [nM] | IC50 [2] [nM] | IC50 ([3]; 1 mM putrescine substrate) [nM] |
| --- | --- | --- | --- | --- | --- | --- |
| Cc1c(-c2ccc(N3CCOCC3)nc2)cccc1-n1cnn(C/C(=C/F)CN)c1=O [Example 110, 2-[(2E)-2-(aminomethyl)-3-fluoroprop-2-en-1-yl]-4-{2-methyl-3-[6-(morpholin-4-yl)pyridin-3-yl]phenyl}-2,4-dihydro-3H-1,2,4-triazol-3-one] | no inhibitory | 4.2 | no inhibitory | – | – | – |
| Cc1c(-c2ccc3c(c2)OCO3)cccc1-n1cnn(C/C(=C/F)CN)c1=O [Example 111, 2-[(2E)-2-(aminomethyl)-3-fluoroprop-2-en-1-yl]-4-[3-(1,3-benzodioxol-5-yl)-2-methylphenyl]-2,4-dihydro-3H-1,2,4-triazol-3-one] | no inhibitory | 2.8 | no inhibitory | – | – | – |
| Cc1cc(-c2ccc(-c3nnc[nH]3)cc2)cnc1-n1cnn(C/C(=C/F)CN)c1=O [Example 136, 2-[(2E)-2-(aminomethyl)-3-fluoroprop-2-en-1-yl]-4-{3-methyl-5-[4-(4H-1,2,4-triazol-3-yl)phenyl]pyridin-2-yl}-2,4-dihydro-3H-1,2,4-triazol-3-one] | – | 0.62 | – | 6100 | – | – |
| Cc1cc(-c2ccc3nonc3c2)ncc1-n1cnn(C/C(=C/F)CN)c1=O [Example 125, 2-[(2E)-2-(aminomethyl)-3-fluoroprop-2-en-1-yl]-4-[6-(2,1,3-benzooxadiazol-5-yl)-4-methylpyridin-3-yl]-2,4-dihydro-3H-1,2,4-triazol-3-one] | – | 1.2 | – | < 100 | – | – |
| Cc1cc(-c2cccc(-c3nc[nH]n3)c2)ncc1-n1cnn(C/C(=C/F)CN)c1=O [Example 122, 2-[(2E)-2-(aminomethyl)-3-fluoroprop-2-en-1-yl]-4-{4-methyl-6-[3-(1H-1,2,4-triazol-3-yl)phenyl]pyridin-3-yl}-2,4-dihydro-3H-1,2,4-triazol-3-one] | – | 0.77 | – | < 100 | – | – |
| Cc1ncc(-c2cccc(-n3cnn(C/C(=C/F)CN)c3=O)c2)cn1 [Example 91, 2-[(2E)-2-(aminomethyl)-3-fluoroprop-2-en-1-yl]-4-[3-(2-methylpyrimidin-5-yl)phenyl]-2,4-dihydro-3H-1,2,4-triazol-3-one hydrochloride] | – | 1.5 | – | 13 | – | – |
| CC(=O)Nc1cc(-c2cccc(-n3cnn(C/C(=C/F)CN)c3=O)c2C)ccn1 [Example 109, N-[4-(3-{1-[(2E)-2-(aminomethyl)-3-fluoroprop-2-en-1-yl]-5-oxo-1,5-dihydro-4H-1,2,4-triazol-4-yl}-2-methylphenyl)pyridin-2-yl]acetamide] | – | 8.1 | – | 740 | – | – |
| Cc1cc(-c2cccc(-c3nnn[nH]3)c2)cnc1-n1cnn(C/C(=C/F)CN)c1=O [Example 144, 2-[(2E)-2-(aminomethyl)-3-fluoroprop-2-en-1-yl]-4-{3-methyl-5-[3-(1H-tetrazol-5-yl)phenyl]pyridin-2-yl}-2,4-dihydro-3H-1,2,4-triazol-3-one] | – | 3.3 | – | 1400 | – | – |
| NC/C(=C/F)Cn1ncn(-c2cccc(-c3cccc(-c4nnc[nH]4)c3)c2)c1=O [Example 60, 2-[(2Z)-2-(aminomethyl)-3-fluoroprop-2-en-1-yl]-4-[3′-(4H-1,2,4-triazol-3-yl)biphenyl-3-yl]-2,4-dihydro-3H-1,2,4-triazol-3-one] | – | 1.3 | – | < 100 | – | – |
| NC/C(=C\F)Cn1ncn(-c2ncc(-c3ccc4c(c3)NC(=O)C4)s2)c1=O [Example 233, 6-(2-{1-[(2E)-2-(aminomethyl)-3-fluoroprop-2-en-1-yl]-5-oxo-1,5-dihydro-4H-1,2,4-triazol-4-yl}-1,3-thiazol-5-yl)-1,3-dihydro-2H-indol-2-one] | – | – | – | – | 1.7 | 1.2 |
| CS(=O)(=O)c1ccc(-c2cccc(-n3cnn(C/C(=C\F)CN)c3=O)c2)cc1 [Example 53, 2-[(2Z)-2-(aminomethyl)-3-fluoroprop-2-en-1-yl]-4-[4′-(methylsulfonyl)biphenyl-3-yl]-2,4-dihydro-3H-1,2,4-triazol-3-one hydrochloride] | – | 2.5 | – | < 30 | – | – |
| CC(=O)Nc1nc2cc(-c3cc(C)c(-n4cnn(C/C(=C/F)CN)c4=O)cn3)ccc2s1 [Example 128, N-[5-(5-{1-[(2E)-2-(aminomethyl)-3-fluoroprop-2-en-1-yl]-5-oxo-1,5-dihydro-4H-1,2,4-triazol-4-yl}-4-methylpyridin-2-yl)-1,3-benzothiazol-2-yl]acetamide] | – | 0.82 | – | < 100 | – | – |
| CC(=O)Nc1cc(-c2cnc(-n3cnn(C/C(=C/F)CN)c3=O)s2)ccn1 [Example 231, N-[4-(2-{1-[(2E)-2-(aminomethyl)-3-fluoroprop-2-en-1-yl]-5-oxo-1,5-dihydro-4H-1,2,4-triazol-4-yl}-1,3-thiazol-5-yl)pyridin-2-yl]acetamide] | – | – | – | – | 0.94 | 0.086 |
